How the values were obtained:
[1] = tested on: HeLa cell; experiment: Cytotoxicity during autophagy screening in HeLa; type: cell-based, human; settings: 5 μM, 24 hrs
Protocol: (§1) The present study is newly reported that indatraline induces autophagy. Although the relationship between neurotransmitter inhibitor and autophagy has been studying, specific mechanisms for each neurotransmitter inhibitor have not yet been unknown. Indatraline-induced autophagy was verified by fluorescence screening and LC3 conversion immunoblotting. In addition, indatraline inhibits cell proliferation with an IC50 of 3 μM in HeLa cell and an IC50 of 0.5 μM in HUVEC cell, respectively. […] In addition, angiogenesis inhibitory effect of indatraline is tested as autophagy inducer and cell growth inhibitor. Indatraline of In vitro assay inhibits capillary formation, invasion and migration as angiogenesis indicators. […] Induction of autophagy may trigger signal inhibiting angiogenesis, or inhibition of neurotransmitter may simultaneously stimulate inhibitions of both of autophagy and angiogenesis.

[2] = tested on: melan-a cells; experiment: Measurement of amounts of melanin generated in melan-a; settings: 5 μM, vs control group
Protocol: (§4) In order to verify whether indatraline induces autophagy and is involved in melanogenesis, skin cancer cell line B16-F10 and normal skin cell line melan-a were treated with indatraline to determine autophagy generation. The amount of melanin generated in each cell line was measured at 5 μM concentration in which autophagy strongly occurs. For measurement on amounts of melanin, cells were treated with indatraline for 24, 48 and 72 hrs, and collected with KOH every day to measure melanin pigment absorbance at 410 nm. At the same time, cell proliferation was measured using MTT.
(§5) The amount of melanin generated in each cell line was measured at 5 μM of concentration which autophagy surely occurs. […] At the same time, cell growth was measured.

[3] = tested on: HeLa cells; experiment: LC3 immunoblotting (LC3-I to LC3-II conversion) in HeLa; type: cell-based, human; settings: for effect of autophagy inhibitor on indatraline-induced conversion of LC3-I to LC3-II: inhibitor pre-treated 1 hr
Protocol: (§2) Soluble proteins were harvested from indatraline-treated HeLa cells by using SDS buffer (50 mM Tris HCl, pH 6.8, 10% glycerol, 2% SDS, 10 mM dithiothreitol, and 0.005% bromophenol blue). Equal volumes of proteins were separated by 12.5% SDS-PAGE and transferred to PVDF membranes (Millipore). Blots were then blocked and immunolabeled overnight at 4° C. using anti-LC3 antibody (MBL, Nagoya, Japan). Immunolabeling was visualized with enhanced chemiluminescence (ECL) kit (Amersham Life Science, Inc., Buckinghamshire, UK) according to the manufacturer's protocol. Tubulin was used as an internal control and was detected using anti-tubulin antibody (Upstate Biotechnology).
LC3 conversion was finally verified by immunoblotting. After indatraline treatment for 24 hrs, the conversion of LC3-I to LC3-II in cells was tested (FIG. 2A). Inductions of autophagy in both of HUVEC and HeLa cells were tested in concentration starting from 5 μM. In order to investigate signal pathway related to indatraline, well-known autophagy inhibitors 3-MA (10 mM), Bafilomycin A (100 nM), PD98059 (10 μM) and Wortmannin (100 nM) was treated with indatraline. The inhibitors were pre-treated for 1 hr before indatraline and treated with 5 μM or 10 μM of indatraline. Where indatraline was treated with 5 μM of concentration, the conversion of LC3-I to LC3-II was inhibited in Bafilomycin A-treated sample and Wortmannin-treated sample (FIG. 2B). However, where indatraline was treated with 10 μM of concentration, the conversion of LC3-I to LC3-II was not inhibited in inhibitor-treated samples, except for Bafilomycin A-treated sample.

[4] = tested on: rat carotid artery; experiment: Inhibition of angiostenosis after balloon injury; type: in vivo; settings: 7 days
Protocol: In order to verify effects for inhibiting angiostenosis by indatraline as autophagy-induced material in rat carotid artery, a balloon injury was created in the normal left rat carotid artery. After balloon injury, indatraline, rapamycin and DMSO (control group) were treated using catheter to observe angiostenosis. […] At 7 days after the injury, the carotid arteries were excised. Smooth muscle cells were stained with hematoxylin and eosin (H&E). Levels of angiostenosis were observed.
After balloon injury, indatraline, rapamycin and DMSO (control group) were treated using catheter to observe angiostenosis. […] The ratio between intima area and media area was compared by observing tissue stenosed.

[5] = tested on: HUVEC; experiment: VEGF-induced chemoinvasion assay; type: cell-based
Protocol: In vitro HUVEC invasion was verified using Transwell chamber equipped 8.0-1 m size pore polycarbonate filter insert. Briefly, the lower layer surface of the filter was coated with gelatin (1 mg/mL), and the upper layer surface of the filter was coated with matrigel (3 mg/mL). HUVEC (7×10^4 cells) was placed in the upper layer of the filter, and the compound was added to the lower layer of the filter under the presence of VEGF (50 ng/ml). Then, the chamber was incubated at 37° C. for 18 hrs. The cells were fixed with 70% methanol and stained with hematoxylin and eosin. The lower layer of the filter was observed by microscope with 100× magnification to measure the cell invasion. The cell images were obtained using DP70 camera.

[6] = tested on: HUVEC; experiment: LC3 immunoblotting (LC3-I to LC3-II conversion) in HUVEC; type: cell-based; settings: 24 hrs
Protocol: as §2
LC3 conversion was finally verified by immunoblotting. After indatraline treatment for 24 hrs, the conversion of LC3-I to LC3-II in cells was tested (FIG. 2A). Inductions of autophagy in both of HUVEC and HeLa cells were tested in concentration starting from 5 μM. In order to investigate signal pathway related to indatraline, well-known autophagy inhibitors 3-MA (10 mM), Bafilomycin A (100 nM), PD98059 (10 μM) and Wortmannin (100 nM) was treated with indatraline. The inhibitors were pre-treated for 1 hr before indatraline and treated with 5 μM or 10 μM of indatraline. […]

[7] = tested on: B16-F10 cells; experiment: Cell growth (MTT) in B16-F10; settings: B16-F10, 5 μM, vs control group
Protocol: as §4, §5

[8] = tested on: HUVEC; experiment: Cell proliferation assay (MTT) in HUVEC; type: cell-based; settings: Homo sapiens, 72 h, 3 days
Protocol: (§3) Cell proliferation was measured using a MTT [3-(4,5-dimethylthiazol-2-yl)-2,5-diphenyltetrazolium bromide] colorimetric assay. HeLa cells and HUVEC (Lonza, USA) were seeded at a density of 3×10^3 cells/well in 96-well plates and incubated for 24 hrs. Cells were treated with various concentration of indatraline. After 3 days of treatment, 2 mg/mL MTT was added to each well and incubated for 4 hrs. MTT formazoan in each well was dissolved in 150 μL of DMSO, and absorbance at 595 nm was measured in a microplate reader (Bio-Tek Instrument Inc., Winooski, Vt.). Relative cell growth was measured by calculating the ratio between signal of indatraline-treated wells and control wells.

[9] = tested on: skin cancer cell line B16-F10; experiment: LC3 conversion in B16-F10; type: cell-based; settings: B16-F10, 5 μM and 10 μM
[10] = tested on: B16-F10 cells; experiment: Measurement of amounts of melanin generated in B16-F10; settings: B16-F10, 5 μM, vs control group
Protocol: as §4, §5

[11] = tested on: HUVEC; experiment: Cell migration (wound) assay; type: cell-based; settings: 5 μM and 10 μM, 9 hrs
Protocol: To measure cell migration, HUVEC cells were cultured up to 100% confluence in 12-well plates. Then, the well was wounded a straight scratch using a 200 μL pipette tip. Cells were treated with indatraline and cells migration was observed every 3 hrs. The wound at 9 hrs was recovered by almost 80%. The images were obtained using DP70 camera with 40× magnification.

[12] = tested on: HUVEC; experiment: VEGF-induced capillary formation assay; type: cell-based; settings: VEGF 50 ng/ml
Protocol: Matrigel (10 mg/mL) (BD, USA) was coated to 48-well plates and polymerized at 37° C. HUVEC (6×10^4 cells) was inoculated on the surface of matrigel in 48-well plates. Under the presence of VEGF (50 ng/ml), the compound was added for 4 hrs at 37° C. Cell morphological changes and a capillary structure formed were observed microscope (IX71, Olympus), and the images were obtained using DP70 camera (Olympus) at 100× magnification.

[13] = tested on: COS7 cells stably expressing EGFP-LC3; experiment: Autophagy detection in stable cell line expressing EGFP-LC3; type: cell-based, African green monkey; settings: COS7 EGFP-LC3, 24 hrs
Protocol: HeLa (human epithelial cervix adenocarcinoma) cells and COS-7 (African green monkey kidney cells) cells (Korean Cell Line Bank) were grown and maintained in DMEM containing 10% FBS (fetal bovine serum). A stable COS7 cell line expressing EGFP-LC3 was established by transfecting COS7 cells with pEGFP-LC3 using Lipofectamine 2000 according to the manufacturer's protocol (Invitrogen). Stable clones were selected in complete medium containing 750 μg/mL of G418. Cells were cultured at 37° C. in an atmosphere of 5% CO2 in air, pH 7.4. DMEM and FBS were obtained from Gibco Laboratories (Grand Island, N.Y.). Plasmids encoding EGFP-LC3 was kindly provided by Tamotsu Yoshimori (National Institute for Basic Biology, Japan).
In order to measure direct elements of autophagy, indatraline-induced autophagy was further verified in stable COST cell line expressing EGFP-LC3. Where autophagy was induced, the cytosolic form of LC3 is converted into the membrane-bound form. By the recruitment of Atg12-Atg5 complex, the cytosolic form of LC3 is converted into the membrane-bound form to mature the autophagosome. After indatraline treatment for 24 hrs, EGFP-LC3 positive small vacuoles were examined in the cytosol.

[14] = tested on: normal skin cell line melan-a; experiment: LC3 conversion in melan-a; type: cell-based
Protocol: It was verified whether indatraline is induced autophagy and involved in melanogenesis. The correlation of autophagy and melanogenesis has been studied as described above. Pigmentation disorders are generated by melanogenesis (chloasma, freckle, age spot, etc.), and abnormality of melanogenesis control can lead to melanoma (skin cancer). Therefore, melanogenesis control may be used to whitening and skin cancer treatment. […] As a result, it was determined that autophagy was induced. […] In melan-a cells, LC3 conversion was observed from 1 μM of concentration (FIG. 5A).

[15] = tested on: melan-a cells; experiment: Cell growth (MTT) in melan-a; settings: 5 μM, vs control group
Protocol: as §4, §5

[16] = tested on: HUVEC cell; experiment: Cytotoxicity during autophagy screening in HUVEC; type: cell-based; settings: 5 μM, 24 hrs
Protocol: as §1

[17] = tested on: HeLa cells; experiment: Autophagy detection by Lysotracker fluorescence, quantified by HCS
Excerpt: (§6) Each sample was washed with PBS three times and visualized by fluorescence microscopy. […] Hoechst 33258 and LysoTracker were purchased from Molecular Probes (Eugene, Oreg.), and MDC was purchased from BioChemika (Sigma, Switzerland).

[18] = tested on: HeLa cells; experiment: Cell proliferation assay (MTT) in HeLa; type: cell-based; settings: Homo sapiens, 72 h, 3 days
Protocol: as §3

[19] = tested on: HeLa cells; experiment: Autophagy detection by MDC staining; settings: 24 hrs
Excerpt: as §6

`CN[C@@H]1C[C@@H](c2ccc(Cl)c(Cl)c2)c2ccccc21` [indatraline] was tested, and the cytotoxicity [1] was “no cytotoxicity”, the melanogenesis inhibited ([2]; 48 hrs) was “approximately 89%” and the melanogenesis inhibited ([2]; 72 hrs) was “approximately 74%”. For the same compound, the “concentration from which LC3 conversion (autophagy induction) occurs” value ([3]; HeLa, 24 hrs) was no less than 5 µM, the angiostenosis [4] was “significantly inhibited” and the “proliferation of smooth muscle cells” value [4] was “inhibited”. For the same compound, the “intima area (ratio between intima area and media area)” value ([4]; control approximately 80%) was “less than 60%”, the “smooth muscle cell growth reduced compared to control group” value ([4]; catheter treatment, intima/media ratio) was “approximately 20%” and the VEGF-induced invasion ([5]; 0.5 μM and 1 μM, 18 hrs) was “significantly decreased invasion cells”. For the same compound, the “concentration from which VEGF-induced invasion is effectively inhibited” value ([5]; FIG. 4B legend) was no less than 5 µM, the “concentration from which LC3 conversion (autophagy induction) occurs” value [6] was no less than 5 µM and the cell growth inhibited ([7]; 24 hrs) was 55%. The “cell growth inhibited (maintained)” value ([7]; after 24 hrs (maintained)) was 54%, the IC50 [8] was 500 nM and the LC3 conversion [9] was “strongly occurred”. For the same compound, the melanogenesis inhibited ([10]; 48 hrs) was “approximately 77%”, the melanogenesis inhibited ([10]; 72 hrs) was “approximately 59%” and the “migration of HUVEC” value [11] was “inhibited migration”. For the same compound, the VEGF-induced capillary formation ([12]; 1 μM) was “inhibited the mature capillary formation”, the capillary formation ([12]; 4 hrs) was “weakly inhibited” and the “EGFP-LC3 fluorescence in the cytoplasm” value [13] was “increased indatraline concentration-dependently”. The “concentration from which LC3 conversion is observed” value [14] was no less than 1 µM, the cell growth inhibited ([15]; 24 hrs) was 62% and the “cell growth inhibited (maintained)” value ([15]; after 24 hrs (maintained)) was 56%. The cytotoxicity [16] was “no cytotoxicity”, the “autophagy induction (Lysotracker fluorescence) relative to control group” value ([17]; 1 μM, 24 hrs, HCS) was 2.87 times and the “autophagy induction in HCS” value ([17]; Lysotracker) was “induced autophagy similar to rapamycin”. The IC50 [18] was 3000 nM and the MDC staining fluorescence [19] was “dose-dependent increase of fluorescence from 1 μM”.

`CO/C1=C\C(C)=C\[C@@H](C)[C@@H](O)[C@@H](C)C/C(C)=C/C=C/[C@H](OC)[C@@H]([C@@H](C)[C@@H](O)[C@H](C)[C@@]2(O)C[C@@H](O)[C@H](C)[C@@H](C(C)C)O2)OC1=O` [Bafilomycin A] was tested, and the “effect of autophagy inhibitor on indatraline-induced conversion of LC3-I to LC3-II” value ([3]; indatraline 5 μM) was “inhibited” and the “effect of autophagy inhibitor on indatraline-induced conversion of LC3-I to LC3-II” value ([3]; indatraline 10 μM) was “inhibited”.

Source: patent US9328059B2, “Pharmaceutical composition for preventing or treating autophagy-related diseases, angiogenic diseases or melanin-related diseases” (INDUSTRY-ACADEMIC COOPERATION FOUNDATION, YONSEI UNIVERSITY, priority 2010, dated 2016)
